This note sets out measurements from ChEMBL document CHEMBL1142033, “Synthesis of isonicotinic acid N'-arylidene-N-[2-oxo-2-(4-aryl-piperazin-1-yl)-ethyl]-hydrazides as antituberculosis agents” (2005).

In brackets after ≈: the same amount, converted by molar mass.

For test [1], the system named is Mycobacterium tuberculosis. The experiment in a line: Minimum inhibitory concentration against Mycobacterium tuberculosis H37Rv ATCC 27294. The test is classed as functional.
The test system of test [2] is Mycobacterium tuberculosis. The experiment in a line: Minimum inhibitory concentration against sensitive Mycobacterium tuberculosis clinical isolates; N=9. The format is functional.
The subject of test [3] is Mycobacterium tuberculosis. Briefly: Minimum inhibitory concentration against sensitive Mycobacterium tuberculosis clinical isolates; N=9; range=8-16. The test is classed as functional.
The subject of test [4] is Mycobacterium tuberculosis. Briefly: Minimum inhibitory concentration against sensitive Mycobacterium tuberculosis clinical isolates; N=9; range=2-4. The format is functional.
Test [5] concerns Mycobacterium tuberculosis. The experiment in a line: Minimum inhibitory concentration against sensitive Mycobacterium tuberculosis clinical isolates; N=9; range=4-8. The format is functional.
For test [6], the system named is Mycobacterium tuberculosis. Briefly: Minimum inhibitory concentration against sensitive Mycobacterium tuberculosis clinical isolates; N=9; range=1-4. The test is classed as functional.
Test [7] concerns Mycobacterium tuberculosis. The experiment in a line: Minimum inhibitory concentration against sensitive Mycobacterium tuberculosis clinical isolates; N=9; Range = 0.12-0.25. The format is functional.
The subject of test [8] is Mycobacterium tuberculosis. The experiment in a line: microbe, parasite or virus in culture.
Description: Minimum inhibitory concentration against sensitive Mycobacterium tuberculosis clinical isolates; N=9; Range=0.03-0.5

`O=C(CN(/N=C/c1ccccc1Cl)C(=O)c1ccncc1)N1CCN(c2ccc(F)cc2)CC1`: the MIC in test [1] and in test [2] was > 16 µg/mL throughout.
As for `O=C(CN(/N=C/c1cccc(Cl)c1)C(=O)c1ccncc1)N1CCN(c2ccc([N+](=O)[O-])cc2)CC1`, the MIC in test [1] and in test [2] was > 16 µg/mL each time.
Turning to `O=C(CN(/N=C/c1ccc(Cl)cc1Cl)C(=O)c1ccncc1)N1CCN(c2ccc(Cl)cc2)CC1`, the MIC in test [1] and in test [2] was 8 µg/mL (≈ 15.1 µM) each time.
`O=C(CN(/N=C/c1ccc(Cl)cc1Cl)C(=O)c1ccncc1)N1CCN(c2ccc(F)cc2)CC1`: the values for the MIC in test [1] and in test [3] were > 16 µg/mL and 16 µg/mL (≈ 31.1 µM), respectively.
On to `O=C(CN(/N=C/c1cccc(Cl)c1)C(=O)c1ccncc1)N1CCN(c2ccc(Cl)cc2)CC1`, for which the MIC in test [1] and in test [2] was > 16 µg/mL in each case.
Consider `COc1ccccc1N1CCN(C(=O)CN(/N=C/c2ccc(Cl)cc2)C(=O)c2ccncc2)CC1`, for which the MIC in test [1] and in test [2] was > 16 µg/mL each time.
Take `COc1ccccc1N1CCN(C(=O)CN(/N=C/c2ccccc2Cl)C(=O)c2ccncc2)CC1`: the MIC in test [1] and in test [2] was > 16 µg/mL each time.
As for `O=C(CN(/N=C/c1ccc(Cl)cc1)C(=O)c1ccncc1)N1CCN(c2ccc(Cl)cc2)CC1`, the MIC in test [1] and in test [2] was > 16 µg/mL each time.
On to `O=C(CN(/N=C/c1ccc(Cl)cc1Cl)C(=O)c1ccncc1)N1CCN(c2cccc(C(F)(F)F)c2)CC1`, for which the MIC in test [1] and in test [2] was > 16 µg/mL each time.
As for `O=C(CN(/N=C/c1ccccc1Cl)C(=O)c1ccncc1)N1CCN(c2ccccc2)CC1`, the MIC in test [1] was > 16 µg/mL; in test [3], 16 µg/mL (≈ 34.6 µM).
In the case of `O=C(CN(/N=C/c1ccccc1Cl)C(=O)c1ccncc1)N1CCN(c2ccc([N+](=O)[O-])cc2)CC1`, the MIC in test [1] and in test [2] was > 16 µg/mL each time.
In the case of `Cc1cccc(N2CCN(C(=O)CN(/N=C/c3ccc(Cl)cc3Cl)C(=O)c3ccncc3)CC2)c1`, the MIC in test [1] and in test [2] was > 16 µg/mL throughout.
`O=C(CN(/N=C/c1ccccc1Cl)C(=O)c1ccncc1)N1CCN(c2cccc(Cl)c2)CC1`: the MIC in test [1] and in test [2] was > 16 µg/mL each time.
In the case of `Cc1cccc(N2CCN(C(=O)CN(/N=C/c3ccccc3Cl)C(=O)c3ccncc3)CC2)c1`, the MIC in test [1] and in test [2] was > 16 µg/mL each time.
As for `O=C(CN(/N=C/c1ccc(Cl)cc1)C(=O)c1ccncc1)N1CCN(c2ccc(F)cc2)CC1`, the MIC in test [1] and in test [2] was > 16 µg/mL in each case.
As to `COc1ccccc1N1CCN(C(=O)CN(/N=C/c2cccc(Cl)c2)C(=O)c2ccncc2)CC1`, the MIC in test [1] and in test [2] was > 16 µg/mL throughout.
For the compound `O=C(CN(/N=C/c1ccccc1Cl)C(=O)c1ccncc1)N1CCN(c2cccc(C(F)(F)F)c2)CC1`, the MIC in test [1] and in test [2] was > 16 µg/mL in each case.
Consider `O=C(CN(/N=C/c1ccc(Cl)cc1Cl)C(=O)c1ccncc1)N1CCN(c2cccc(Cl)c2)CC1`, for which the MIC in test [1] and in test [2] was > 16 µg/mL each time.
As for `O=C(CN(/N=C/c1cccc(Cl)c1)C(=O)c1ccncc1)N1CCN(c2ccc(F)cc2)CC1`, the MIC in test [1] and in test [2] was > 16 µg/mL throughout.
As for `O=C(CN(/N=C/c1cccc(Cl)c1)C(=O)c1ccncc1)N1CCN(c2cccc(Cl)c2)CC1`, the MIC in test [1] and in test [2] was > 16 µg/mL in each case.
With `O=C(CN(/N=C/c1ccc(Cl)cc1)C(=O)c1ccncc1)N1CCN(c2ccc([N+](=O)[O-])cc2)CC1`, the MIC in test [1] and in test [2] was > 16 µg/mL in each case.
In the case of `COc1ccccc1N1CCN(C(=O)CN(/N=C/c2ccc(Cl)cc2Cl)C(=O)c2ccncc2)CC1`, the MIC in test [1] and in test [2] was > 16 µg/mL throughout.
Consider `O=C(CN(/N=C/c1ccccc1Cl)C(=O)c1ccncc1)N1CCN(c2ccc(Cl)cc2)CC1`, for which the MIC in test [1] and in test [2] was > 16 µg/mL throughout.
On to `O=C(CN(/N=C/c1ccc(Cl)cc1Cl)C(=O)c1ccncc1)N1CCN(Cc2ccc3c(c2)OCO3)CC1`, for which the “Range of MIC” value in test [1] was found to be 1 µg/mL. In test [2], this compound yielded an MIC of 0.5 µg/mL (≈ 0.902 µM).
For the compound `O=C(CN(/N=C/c1ccc(Cl)cc1Cl)C(=O)c1ccncc1)N1CCN(c2ccc([N+](=O)[O-])cc2)CC1`, the MIC in test [1] and in test [2] was > 16 µg/mL each time.
Turning to `O=C(CN(/N=C/c1cccc(Cl)c1)C(=O)c1ccncc1)N1CCN(Cc2ccc3c(c2)OCO3)CC1`, the MIC in test [1] and in test [4] was 4 µg/mL (≈ 7.69 µM) each time.
`O=C(CN(/N=C/c1ccc(Cl)cc1Cl)C(=O)c1ccncc1)N1CCN(c2ccccc2)CC1`: the MIC in test [1] and in test [2] was > 16 µg/mL each time.
Take `O=C(CN(/N=C/c1ccccc1Cl)C(=O)c1ccncc1)N1CCN(Cc2ccc3c(c2)OCO3)CC1`: the MIC in test [1] stood at 4 µg/mL (≈ 7.69 µM); in test [5] it was 8 µg/mL (≈ 15.4 µM).
As to `Cc1cccc(N2CCN(C(=O)CN(/N=C/c3cccc(Cl)c3)C(=O)c3ccncc3)CC2)c1`, the MIC in test [1] and in test [2] was > 16 µg/mL throughout.
As for `O=C(CN(/N=C/c1ccc(Cl)cc1)C(=O)c1ccncc1)N1CCN(Cc2ccc3c(c2)OCO3)CC1`, the MIC in test [1] stood at 2 µg/mL (≈ 3.85 µM); in test [6] it was 4 µg/mL (≈ 7.69 µM).
Consider `O=C(CN(/N=C/c1ccccc1Cl)C(=O)c1ccncc1)N1CCN(c2cccc(Cl)c2Cl)CC1`, for which the MIC in test [1] and in test [2] was > 16 µg/mL throughout.
With `O=C(CN(/N=C/c1cccc(Cl)c1)C(=O)c1ccncc1)N1CCN(c2ccccc2)CC1`, the MIC in test [1] and in test [2] was > 16 µg/mL throughout.
On to `NNC(=O)c1ccncc1` [ISONIAZID], for which the MIC in test [1] and in test [7] was 0.25 µg/mL (≈ 1.82 µM) each time.
As for `CO[C@H]1/C=C/O[C@@]2(C)Oc3c(C)c(O)c4c(O)c(c(/C=N/N5CCN(C)CC5)c(O)c4c3C2=O)NC(=O)/C(C)=C\C=C\[C@H](C)[C@H](O)[C@@H](C)[C@@H](O)[C@@H](C)[C@H](OC(C)=O)[C@@H]1C` [RIFAMPIN], the MIC in test [1] amounted to 0.125 µg/mL (≈ 0.152 µM); in test [8] it was 0.5 µg/mL (≈ 0.608 µM).
